Data as given in ChEMBL document CHEMBL5126573, “Scaffold modifications to the 4-(4,4-dimethylpiperidinyl) 2,6-dimethylpyridinyl class of HIV-1 allosteric integrase inhibitors” (Bioorg Med Chem, 2022).

Test system: Human immunodeficiency virus 1
Experiment: Antiviral activity against recombinant HIV1 NLRep-Rluc harbouring polymorphic 124T/125T integrase infected in human MT2 cells assessed as inhibition of virus growth in presence of fetal bovine serum by measuring luciferase activity after 5 days by Luciferase Assay
Assay type: functional, organism-based
Conditions: Human immunodeficiency virus 1, NLRep-Rluc, MT2, 120 h

| Structure (SMILES) | EC50 [nM] |
| --- | --- |
| Cc1nc2c(-c3ccc4c(c3)CCN(Cc3c(C)cccc3Cl)C4)c(N3CCC(C)(C)CC3)c([C@H](OC(C)(C)C)C(=O)O)c(C)n2n1 | 6 |
| Cc1cn2c(C)c([C@H](OC(C)(C)C)C(=O)O)c(N3CCC(C)(C)CC3)c(-c3ccc(OCCc4ccc(F)cc4)cc3)c2n1 | 0.8 |
| Cc1nc2c(-c3ccc4c(c3)CCN(c3ncnc5c3oc3ccccc35)C4)c(N3CCC(C)(C)CC3)c([C@H](OC(C)(C)C)C(=O)O)c(C)n2n1 | 3.9 |
| Cc1c([C@H](OC(C)(C)C)C(=O)O)c(N2CCC(C)(C)CC2)c(-c2ccc3c(c2)CCN(c2ncnc4c2oc2ccccc24)C3)c2nccn12 | 2.9 |
| Cc1c([C@H](OC(C)(C)C)C(=O)O)c(N2CCC(C)(C)CC2)c(-c2ccc(OCCc3ccc(F)cc3)cc2)c2cncn12 | 14.6 |

Test system: Human immunodeficiency virus 1
Experiment: Antiviral activity against recombinant HIV1 NLRep-Rluc harbouring polymorphic 124N/125A integrase infected in human MT2 cells assessed as inhibition of virus growth in presence of fetal bovine serum by measuring luciferase activity after 5 days by Luciferase Assay
Assay type: functional, organism-based
Conditions: Human immunodeficiency virus 1, NLRep-Rluc, MT2, 120 h

| Structure (SMILES) | EC50 [nM] |
| --- | --- |
| Cc1nc2c(-c3ccc4c(c3)CCN(Cc3c(C)cccc3Cl)C4)c(N3CCC(C)(C)CC3)c([C@H](OC(C)(C)C)C(=O)O)c(C)n2n1 | 9 |
| Cc1cn2c(C)c([C@H](OC(C)(C)C)C(=O)O)c(N3CCC(C)(C)CC3)c(-c3ccc(OCCc4ccc(F)cc4)cc3)c2n1 | 1.8 |
| Cc1nc2c(-c3ccc4c(c3)CCN(c3ncnc5c3oc3ccccc35)C4)c(N3CCC(C)(C)CC3)c([C@H](OC(C)(C)C)C(=O)O)c(C)n2n1 | 4.5 |
| Cc1c([C@H](OC(C)(C)C)C(=O)O)c(N2CCC(C)(C)CC2)c(-c2ccc3c(c2)CCN(c2ncnc4c2oc2ccccc24)C3)c2nccn12 | 4.6 |
| Cc1c([C@H](OC(C)(C)C)C(=O)O)c(N2CCC(C)(C)CC2)c(-c2ccc(OCCc3ccc(F)cc3)cc2)c2cncn12 | 41 |

Test system: Human immunodeficiency virus 1
Experiment: Antiviral activity against recombinant HIV1 NLRep-Rluc harbouring polymorphic 124A/125A integrase infected in human MT2 cells assessed as inhibition of virus growth in presence of fetal bovine serum by measuring luciferase activity after 5 days by Luciferase Assay
Assay type: functional, organism-based
Conditions: Human immunodeficiency virus 1, NLRep-Rluc, MT2, 120 h

| Structure (SMILES) | EC50 [nM] |
| --- | --- |
| Cc1nc2c(-c3ccc4c(c3)CCN(Cc3c(C)cccc3Cl)C4)c(N3CCC(C)(C)CC3)c([C@H](OC(C)(C)C)C(=O)O)c(C)n2n1 | 10.1 |
| Cc1cn2c(C)c([C@H](OC(C)(C)C)C(=O)O)c(N3CCC(C)(C)CC3)c(-c3ccc(OCCc4ccc(F)cc4)cc3)c2n1 | 1.6 |
| Cc1nc2c(-c3ccc4c(c3)CCN(c3ncnc5c3oc3ccccc35)C4)c(N3CCC(C)(C)CC3)c([C@H](OC(C)(C)C)C(=O)O)c(C)n2n1 | 5.2 |
| Cc1c([C@H](OC(C)(C)C)C(=O)O)c(N2CCC(C)(C)CC2)c(-c2ccc3c(c2)CCN(c2ncnc4c2oc2ccccc24)C3)c2nccn12 | 4.5 |
| Cc1c([C@H](OC(C)(C)C)C(=O)O)c(N2CCC(C)(C)CC2)c(-c2ccc(OCCc3ccc(F)cc3)cc2)c2cncn12 | 34.1 |

Test system: not listed separately
Experiment: Cytotoxicity against human MT2 cells infected with HIV1 NLRep-Rluc harbouring polymorphic 124T/125T integrase
Assay type: toxicity, cell-based
Conditions: MT2 cells infected with HIV-1 NLRep-Rluc

| Structure (SMILES) | CC50 [nM] |
| --- | --- |
| Cc1nc2c(-c3ccc4c(c3)CCN(Cc3c(C)cccc3Cl)C4)c(N3CCC(C)(C)CC3)c([C@H](OC(C)(C)C)C(=O)O)c(C)n2n1 | ≥ 3000 |
| Cc1cn2c(C)c([C@H](OC(C)(C)C)C(=O)O)c(N3CCC(C)(C)CC3)c(-c3ccc(OCCc4ccc(F)cc4)cc3)c2n1 | ≥ 10300 |
| Cc1nc2c(-c3ccc4c(c3)CCN(c3ncnc5c3oc3ccccc35)C4)c(N3CCC(C)(C)CC3)c([C@H](OC(C)(C)C)C(=O)O)c(C)n2n1 | ≥ 3000 |
| Cc1c([C@H](OC(C)(C)C)C(=O)O)c(N2CCC(C)(C)CC2)c(-c2ccc3c(c2)CCN(c2ncnc4c2oc2ccccc24)C3)c2nccn12 | ≥ 3000 |
| Cc1c([C@H](OC(C)(C)C)C(=O)O)c(N2CCC(C)(C)CC2)c(-c2ccc(OCCc3ccc(F)cc3)cc2)c2cncn12 | ≥ 18200 |

Test system: not listed separately
Experiment: Metabolic stability in human liver microsomes assessed as half life
Assay type: ADME, Microsome
Conditions: not given

| Structure (SMILES) | half-life [h] |
| --- | --- |
| Cc1cn2c(C)c([C@H](OC(C)(C)C)C(=O)O)c(N3CCC(C)(C)CC3)c(-c3ccc(OCCc4ccc(F)cc4)cc3)c2n1 | > 2 |

Test system: not listed separately
Experiment: Metabolic stability in Sprague-Dawley rat assessed as clearance at 1 mg/kg, iv
Assay type: ADME, organism-based
Conditions: in vivo

| Structure (SMILES) | clearance [mL/min/kg] |
| --- | --- |
| Cc1nc2c(-c3ccc4c(c3)CCN(Cc3c(C)cccc3Cl)C4)c(N3CCC(C)(C)CC3)c([C@H](OC(C)(C)C)C(=O)O)c(C)n2n1 | 13 |
| Cc1cn2c(C)c([C@H](OC(C)(C)C)C(=O)O)c(N3CCC(C)(C)CC3)c(-c3ccc(OCCc4ccc(F)cc4)cc3)c2n1 | 40.7 |
| Cc1nc2c(-c3ccc4c(c3)CCN(c3ncnc5c3oc3ccccc35)C4)c(N3CCC(C)(C)CC3)c([C@H](OC(C)(C)C)C(=O)O)c(C)n2n1 | 2.8 |
| Cc1c([C@H](OC(C)(C)C)C(=O)O)c(N2CCC(C)(C)CC2)c(-c2ccc3c(c2)CCN(c2ncnc4c2oc2ccccc24)C3)c2nccn12 | 1 |

Test system: not listed separately
Experiment: AUC (0 to infinity) in Sprague-Dawley rat at 5 mg/kg, po
Assay type: ADME, organism-based
Set-up: time infinity, dose 5 mg/kg, route po
Conditions: in vivo

| Structure (SMILES) | AUC(0-inf) [µM·h] |
| --- | --- |
| Cc1nc2c(-c3ccc4c(c3)CCN(Cc3c(C)cccc3Cl)C4)c(N3CCC(C)(C)CC3)c([C@H](OC(C)(C)C)C(=O)O)c(C)n2n1 | 3.21 |
| Cc1cn2c(C)c([C@H](OC(C)(C)C)C(=O)O)c(N3CCC(C)(C)CC3)c(-c3ccc(OCCc4ccc(F)cc4)cc3)c2n1 | 0.269 |
| Cc1nc2c(-c3ccc4c(c3)CCN(c3ncnc5c3oc3ccccc35)C4)c(N3CCC(C)(C)CC3)c([C@H](OC(C)(C)C)C(=O)O)c(C)n2n1 | 36.3 |
| Cc1c([C@H](OC(C)(C)C)C(=O)O)c(N2CCC(C)(C)CC2)c(-c2ccc3c(c2)CCN(c2ncnc4c2oc2ccccc24)C3)c2nccn12 | 12.1 |

Test system: not listed separately
Experiment: Oral bioavailability in Sprague-Dawley rat at 5 mg/kg
Assay type: ADME, organism-based
Conditions: in vivo

| Structure (SMILES) | bioavailability [%] |
| --- | --- |
| Cc1nc2c(-c3ccc4c(c3)CCN(Cc3c(C)cccc3Cl)C4)c(N3CCC(C)(C)CC3)c([C@H](OC(C)(C)C)C(=O)O)c(C)n2n1 | 34 |
| Cc1cn2c(C)c([C@H](OC(C)(C)C)C(=O)O)c(N3CCC(C)(C)CC3)c(-c3ccc(OCCc4ccc(F)cc4)cc3)c2n1 | 8 |
| Cc1nc2c(-c3ccc4c(c3)CCN(c3ncnc5c3oc3ccccc35)C4)c(N3CCC(C)(C)CC3)c([C@H](OC(C)(C)C)C(=O)O)c(C)n2n1 | 83 |
| Cc1c([C@H](OC(C)(C)C)C(=O)O)c(N2CCC(C)(C)CC2)c(-c2ccc3c(c2)CCN(c2ncnc4c2oc2ccccc24)C3)c2nccn12 | 9 |

Test system: not listed separately
Experiment: Permeability of the compound at pH 5.5 by PAMPA assay
Assay type: ADME
Conditions: read-out: permeability

| Structure (SMILES) | Papp [×10⁻⁶ cm/s] |
| --- | --- |
| Cc1nc2c(-c3ccc4c(c3)CCN(Cc3c(C)cccc3Cl)C4)c(N3CCC(C)(C)CC3)c([C@H](OC(C)(C)C)C(=O)O)c(C)n2n1 | 35.2 |
| Cc1cn2c(C)c([C@H](OC(C)(C)C)C(=O)O)c(N3CCC(C)(C)CC3)c(-c3ccc(OCCc4ccc(F)cc4)cc3)c2n1 | 38.7 |
| Cc1nc2c(-c3ccc4c(c3)CCN(c3ncnc5c3oc3ccccc35)C4)c(N3CCC(C)(C)CC3)c([C@H](OC(C)(C)C)C(=O)O)c(C)n2n1 | 101 |

Test system: not listed separately
Experiment: Permeability of the compound at pH 7.4 by PAMPA assay
Assay type: ADME
Conditions: read-out: permeability

| Structure (SMILES) | Papp [×10⁻⁶ cm/s] |
| --- | --- |
| Cc1nc2c(-c3ccc4c(c3)CCN(Cc3c(C)cccc3Cl)C4)c(N3CCC(C)(C)CC3)c([C@H](OC(C)(C)C)C(=O)O)c(C)n2n1 | 48.3 |
| Cc1cn2c(C)c([C@H](OC(C)(C)C)C(=O)O)c(N3CCC(C)(C)CC3)c(-c3ccc(OCCc4ccc(F)cc4)cc3)c2n1 | 43.8 |
| Cc1nc2c(-c3ccc4c(c3)CCN(c3ncnc5c3oc3ccccc35)C4)c(N3CCC(C)(C)CC3)c([C@H](OC(C)(C)C)C(=O)O)c(C)n2n1 | 75.2 |
| Cc1c([C@H](OC(C)(C)C)C(=O)O)c(N2CCC(C)(C)CC2)c(-c2ccc3c(c2)CCN(c2ncnc4c2oc2ccccc24)C3)c2nccn12 | 66.3 |

Test system: not listed separately
Experiment: Toxicity in rat H4-II-E cells assessed as fold change in lipid droplet formation at 10 uM incubated for 72 hrs boron-dipyrromethene staining based by high content screening (HCS) fluorescence analysis relative to control
Assay type: cell-based
Conditions: not given

| Structure (SMILES) | fold change (FC) |
| --- | --- |
| Cc1nc2c(-c3ccc4c(c3)CCN(c3ncnc5c3oc3ccccc35)C4)c(N3CCC(C)(C)CC3)c([C@H](OC(C)(C)C)C(=O)O)c(C)n2n1 | 3.6 |

Test system: not listed separately
Experiment: Toxicity in human Huh-7 cells assessed as fold change in lipid droplet formation at 10 uM incubated for 72 hrs boron-dipyrromethene staining based by high content screening (HCS) fluorescence analysis relative to control
Assay type: cell-based
Conditions: huh-7, 72 h

| Structure (SMILES) | fold change (FC) |
| --- | --- |
| Cc1nc2c(-c3ccc4c(c3)CCN(c3ncnc5c3oc3ccccc35)C4)c(N3CCC(C)(C)CC3)c([C@H](OC(C)(C)C)C(=O)O)c(C)n2n1 | 3.9 |
